The results in this text go back to PubChem BioAssay AID623934 (Southern Research Specialized Biocontainment Screening …, 2012).

The subject of assay [1] is West Nile virus infected cells, antiviral cytopathic protection. The experiment in a line: cell protection from WNV infection – EC_3, dose response (AID 623934).
Test in assay [2]: as above
The note with it: West Nile virus infected cells, antiviral cytopathic protection. In general terms: Protection from cytopathic effect is a common read-out in antiviral testing.

The source made the active and inactive calls. How the calls were made is not given here.

Usually EC50 stands for the concentration at which the effect is half-maximal. As a reminder, the inhibition is the change of the read-out against control, counted positive when it falls. Regarding `O=C(CSc1nc2cccc(F)c2c(=O)n1-c1ccc(Cl)c(Cl)c1)Nc1ccc2c(c1)CCC2`, the EC50 in assay [1] was 15.4 µM. In addition, in assay [2] (at 100 µM (top of the series)), the inhibition is 3.14% (inactive).
For `O=C(CSc1nc2c(F)cccc2c(=O)n1-c1cc(Cl)cc(Cl)c1)Nc1ccc2c(c1)CCC2`, the EC50 in assay [1] is 11.4 µM.
Take `Cc1cc(-n2c(SCC(=O)c3nc(-c4ccccc4)cs3)nc3ccccc3c2=O)ccc1Cl`: the inhibition in assay [2] (at 50 µM (top of the series)) is 3.94% (inactive).
Take `Cc1cc(-n2c(SCC(=O)Nc3ccc4c(c3)CCC4)nc3ccccc3c2=O)ccc1Cl`: the EC50 in assay [1] is 4.22 µM.
As to `O=C(CSc1nc2ccccc2c(=O)n1-c1ccc(Cl)c(Cl)c1)Nc1ccc2c(c1)CCC2`, the inhibition in assay [2] (at 100 µM (top of the series)) is 24.8% (inactive).
As for `Cc1cc(-n2c(SCC(=O)Nc3ccc4c(c3)CCC4)nc3ccccc3c2=O)ccc1F`, the EC50 in assay [1] was 6.66 µM.
For the compound `N#Cc1ccc(-n2c(SCC(=O)c3nc(-c4ccccc4)cs3)nc3ccccc3c2=O)cc1`, the inhibition in assay [2] (at 100 µM (top of the series)) is 3.25% (inactive).
For the compound `O=C(CSc1nc2ccccc2c(=O)n1-c1c(Cl)cccc1Cl)Nc1nc(-c2ccccc2)cs1`, in assay [2] (at 100 µM (top of the series)), the inhibition was 1.54% (inactive).
Same read-out and setting: under `Cc1cc(-n2c(SCC(=O)Nc3nc(-c4ccccc4)cs3)nc3ccccc3c2=O)ccc1Cl` stands 5.12% (inactive).
Consider `O=C(CSc1nc2ccccc2c(=O)n1-c1ccc(Cl)c(Br)c1)Nc1ccc2c(c1)CCC2`, for which the EC50 in assay [1] is 13.7 µM.
On to `N#Cc1ccc(-n2c(SCC(=O)Nc3ccc4c(c3)CCC4)nc3ccccc3c2=O)cc1F`, for which the inhibition in assay [2] (at 100 µM (top of the series)) was 2.03% (inactive).
On the same count and under the same terms, as for `O=C(CSc1nc2ccccc2c(=O)n1-c1ccc(Cl)c(Cl)c1)Nc1nc(-c2ccccc2)cs1`, the figure is 4.05% (inactive); as for `O=C(CSc1nc2cccc(F)c2c(=O)n1-c1ccc(Cl)c(Cl)c1)Nc1nc(-c2ccccc2)cs1`, 3.12% (inactive).
On to `O=C(CSc1nc2ccccc2c(=O)n1-c1cc(F)cc(F)c1)c1nc(-c2ccccc2)cs1`, for which the inhibition in assay [2] (at 100 µM (top of the series)) was 6.41% (inactive).
For `O=C(CSc1nc2ccccc2c(=O)n1-c1cc(F)c(F)cn1)Nc1ccc2c(c1)CCC2`, the EC50 in assay [1] is 18.5 µM.
For the compound `Cc1cc(-n2c(SCC(=O)Nc3nc(-c4ccccc4)cs3)nc3ccccc3c2=O)ccc1F`, in assay [2] (at 100 µM (top of the series)), the inhibition was 4.72% (inactive).
Turning to `N#Cc1ccc(-n2c(SCC(=O)Nc3nc(-c4ccccc4)cs3)nc3ccccc3c2=O)cc1`, in assay [2] (at 100 µM (top of the series)), the inhibition is 6.44% (inactive).
Turning to `O=C(CSc1nc2ccccc2c(=O)n1-c1ccccc1)Nc1ccc2c(c1)CCC2`, the EC50 in assay [1] was 26.8 µM.
Consider `O=C(CSc1nc2ccccc2c(=O)n1-c1cc(F)cc(F)c1)Nc1nc(-c2ccccc2)cs1`, for which the inhibition in assay [2] (at 100 µM (top of the series)) was 3.67% (inactive).
Take `O=C(CSc1nc2ccccc2c(=O)n1-c1c(Cl)cccc1Cl)c1nc(-c2ccccc2)cs1`: the inhibition in assay [2] (at 100 µM (top of the series)) is 3.02% (inactive).
On to `Cc1ccc(-n2c(SCC(=O)Nc3ccc4c(c3)CCC4)nc3ccccc3c2=O)cc1Br`, for which the EC50 in assay [1] was 8.28 µM.
For the compound `O=C(CSc1nc2ccccc2c(=O)n1-c1ccc(Cl)c(Br)c1)Nc1nc(-c2ccccc2)cs1`, the inhibition in assay [2] (at 100 µM (top of the series)) was 4.48% (inactive).
For the compound `Cc1cc(-n2c(SCC(=O)c3nc(-c4ccccc4)cs3)nc3ccccc3c2=O)ccc1F`, the inhibition in assay [2] (at 100 µM (top of the series)) is 3.75% (inactive).
Still for that read-out and setting: under `O=C(CSc1nc2c(Cl)cccc2c(=O)n1-c1cc(Cl)cc(Cl)c1)Nc1nc(-c2ccccc2)cs1` stands 5.19% (inactive).
As to `Cc1ccc(-n2c(SCC(=O)c3nc(-c4ccccc4)cs3)nc3ccccc3c2=O)cc1Br`, in assay [2] (at 100 µM (top of the series)), the inhibition was 4.12% (inactive).
Same read-out and setting: as for `O=C(CSc1nc2c(Cl)cccc2c(=O)n1-c1cc(Cl)cc(Cl)c1)Nc1ccc2c(c1)CCC2`, the figure is 5.62% (inactive).
For `O=C(CSc1nc2c(F)cccc2c(=O)n1-c1ccc(Cl)c(Cl)c1)Nc1ccc2c(c1)CCC2`, in assay [1], the EC50 is 9.43 µM.
With `O=C(CSc1nc2c(F)cccc2c(=O)n1-c1cc(Cl)cc(Cl)c1)Nc1nc(-c2ccccc2)cs1`, the inhibition in assay [2] (at 100 µM (top of the series)) is 3.92% (inactive).
Regarding `O=C(CSc1nc2ccccc2c(=O)n1-c1cc(F)cc(F)c1)Nc1ccc2c(c1)CCC2`, the EC50 in assay [1] is 11.4 µM.
Turning to `O=C(CSc1nc2cccc(F)c2c(=O)n1-c1cc(Br)c(F)cn1)Nc1ccc2c(c1)CCC2`, in assay [2] (at 100 µM (top of the series)), the inhibition is 3.79% (inactive).
Consider `O=C(CSc1nc2ccccc2c(=O)n1-c1ccc(Cl)c(F)c1)c1nc(-c2ccccc2)cs1`, for which the inhibition in assay [2] (at 100 µM (top of the series)) was 4.16% (inactive).
On to `O=C(CSc1nc2ccccc2c(=O)n1-c1c(Cl)cccc1Cl)Nc1ccc2c(c1)CCC2`, for which, in assay [1], the EC50 was 13 µM.
Turning to `O=C(CSc1nc2ccccc2c(=O)n1-c1cc(Cl)c(F)cn1)Nc1ccc2c(c1)CCC2`, the EC50 in assay [1] was 24.4 µM.
In the case of `O=C(CSc1nc2ccccc2c(=O)n1-c1ccccn1)Nc1ccc2c(c1)CCC2`, the inhibition in assay [2] (at 100 µM (top of the series)) was 2.47% (inactive).
In the case of `O=C(CSc1nc2c(F)cccc2c(=O)n1-c1ccccc1)Nc1ccc2c(c1)CCC2`, the concentration giving a half-maximal response (EC50) in assay [1] is 17.3 µM.
Take `N#Cc1ccc(-n2c(SCC(=O)Nc3nc(-c4ccccc4)cs3)nc3ccccc3c2=O)cc1F`: the inhibition in assay [2] (at 100 µM (top of the series)) is 5.78% (inactive).
Turning to `O=C(CSc1nc2c(F)cccc2c(=O)n1-c1ccc(Cl)c(Cl)c1)Nc1nc(-c2ccccc2)cs1`, in assay [2] (at 100 µM (top of the series)), the inhibition was 5.8% (inactive).
Regarding `O=C(CSc1nc2ccccc2c(=O)n1-c1ccccn1)Nc1nc(-c2ccccc2)cs1`, the inhibition in assay [2] (at 100 µM (top of the series)) was 3.87% (inactive).
Take `O=C(CSc1nc2c(F)cccc2c(=O)n1-c1ccccc1)Nc1nc(-c2ccccc2)cs1`: in assay [2] (at 100 µM (top of the series)), the inhibition is 3.49% (inactive).
Take `O=C(CSc1nc2ccccc2c(=O)n1-c1ccc(Cl)c(F)c1)Nc1ccc2c(c1)CCC2`: the inhibition in assay [2] (at 100 µM (top of the series)) was 7.41% (inactive).
On to `N#Cc1ccc(-n2c(SCC(=O)Nc3ccc4c(c3)CCC4)nc3ccccc3c2=O)cc1`, for which the inhibition in assay [2] (at 100 µM (top of the series)) is 8.15% (inactive).
